Numbered stars: 1 amine (or outer) side, 2 acyl side, 3 side chain; on linkers, the order of the positions; unused ones are H or OH. * marks the point of attachment. Suc = O=C(CCC(=O)[*:2])[*:1]; Propionyl = CCC(=O)*
Experiments:
Format in all cases: in vivo, rat
[1] = Example 7: insulin tolerance test in Zucker Diabetic Fatty rats; conditions: ZDF rats; metformin 400 mg/kg/day oral, UGP302 5 μg/kg/day s.c.
Procedure: (§1) To assess the potential of UGP302 (SEQ ID NO: 15) in combination with metformin, Zucker Diabetic Fatty rats were used. At the age of 6 weeks 40 rats were randomized into four groups according to HbA1c, FPG and BW. The groups were: Control (Vehicle), Metformin 400 mg/kg/day, UGP302 5 μg/kg/day and the combination of the two molecules in the stated respective amounts. The treatments were given once daily, and metformin was dosed orally, while UGP302 was given subcutaneously, and the animals were treated for 8 weeks. Fasting blood glucose (FPG) and non-fasted blood glucose (PPG) were monitored biweekly, while HbA1c was measured at termination.
(§2) To further assess the effect of both single doses of each molecule and the combination of these at those same doses, the rats underwent an oral glucose tolerance test (OGTT, FIGS. 23A-23B) and an insulin tolerance test (ITT, FIGS. 24A-24B).

[2] = Example 7: oral glucose tolerance test in Zucker Diabetic Fatty rats; conditions: ZDF rats; metformin 400 mg/kg/day oral, UGP302 5 μg/kg/day s.c.
Procedure: as §1, §2

[3] = Example 7: combination with metformin in Zucker Diabetic Fatty rats, FPG, PPG, HbA1c; conditions: ZDF rats; 8 weeks once daily; metformin 400 mg/kg/day oral, UGP302 5 μg/kg/day s.c.
Procedure: as §1

[4] = Example 3: OGTT after 3 days of oral treatment in DIO rats; conditions: doses of 0.5, 1 and 2 mg/kg p.o.
Procedure: (§3) Drug administration were given by per oral (p.o.) gavage b.i.d. during the study period and as single dose in the morning prior to start of OGTT.
Animals were given 2 g/kg single dose dissolved in milliQ H20.
(§4) Following the initial (1st) OGTT, animals were randomized into treatment groups based on FBG and BW. Animals were pre-treated 3 days (b.i.d.) prior to 2nd OGTT. The study was performed in an x-over design with each animal being its own control.
OGTT Following Overnight Fasting (16 h):
Blood sampling and glycemia were measured by heated tail venous puncture. Whole blood glucose levels were determined with an ACCU-CHEK® Avia blood glucose meter (Roche Diagnostics, Rotkreuz, Switzerland). Blood (approx 300 μl) is collected in 1 ml MiniCollect K3EDTA plasma-tube (Greiner-Bio-One GmbH, Frickenhausen, Germany), inverted, and stored on ice. Tubes are centrifuged 3000×g (5000 rpm in table centrifuge) for 10 min at 4° C. and plasma obtained. Plasma samples are stored at −20° C. until analysis. A total of ˜2.5 ml blood is obtained during OGTT (˜0.3% of body weight).
(§5) Statistical analysis was performed by one-way ANOVA followed by the Dunnett's post hoc test for multiple comparison. Student's t-test was performed to compare two paired group. All analysis was performed using GRAPHPAD PRISM software (GraphPad Prism, San Diego, Calif. U.S.A). Incremental area under curve (iAUC) during OGTT was calculated by the trapezoidal method. A value of P<0.05 was considered to be significant. All data are presented as mean±standard error of the mean (SEM).
FIG. 10A, FIG. 10B, FIG. 10C, FIG. 10D, FIG. 10E, and FIG. 10F show the effect of oral sCT versus oral UGPs on glucose tolerance during OGTT in DIO rats. Three different doses of oral sCT/UGP284/UGP298/UGP302 containing 0.5, 1 and 2 mg/kg compound were applied by gavage twice daily to 4 groups of rats for 3 days prior to OGTT. The experimental set-up was a cross-over design. * P<0.05, ** P<0.01, *** P<0.001 vs oral vehicle. Results are presented as means±SEM.

[5] = Example 3: short-term oral treatment, body weight and food intake in DIO rats; conditions: for reduction in body weight vs oral sCT at same dose: DIO rats; for energy balance vs equivalent doses of oral sCT: 0.5, 1 and 2 mg/kg doses p.o., male DIO rats
Procedure: The study was performed in male Levin-DIO rats (diet-sensitive) and Levin-DR (diet-resistant) (TacLevin: CD (SD) DIO) (Taconic, Hudson, N.Y., U.S.A.) obtained at age 6-7 weeks. On arrival, DIO rats were given high fat diet (60 kcal %) (#D12495, Research Diets Inc., New Brunswick, N.J., USA) and kept on the same diet for 12 weeks prior to and during the experiment. DR rats were given low-fat diet and served as control group. Animals were pair-wise housed throughout the study. Rats were handled and pre-dosed once daily with MilliQ H2O for 2-3 weeks prior to experimental start to reduce stress-induced hyperglycemia. On the day prior to study start animals were given a single dose of vehicle. Baseline parameters were recorded in an overnight fasting (16 h) condition. Rats were randomized into treatment groups based on fasting body weight (BW) and fasting plasma glucose (FPG). Body weight, food and water intake were recorded prior to and at study end.
Animals treated with oral sCT or oral UGP284/UGP298/UGP302 received doses of 0.5 mg/kg, 1.0 mg/kg or 2.0 mg/kg combined with 150 mg/kg 5-CNAC—all dissolved in milliQ H2O.
as §3, §4, §5
FIG. 9A, FIG. 9B, FIG. 9C, FIG. 9D, FIG. 9E, and FIG. 9F show the effect of three different doses of oral sCT/UGP284/UGP298/UGP302 containing 0.5, 1 and 2 mg/kg compound were applied by gavage twice daily to 4 groups of rats for 3 days. * P<0.05, ** P<0.01 vs oral sCT. Results are presented as means±SEM.

| Compound | insulin tolerance (ITT) [1] | glucose tolerance (OGTT) [2] | fasting blood glucose (FPG) [3] | non-fasted blood glucose (PPG) [3] | glucose tolerance during OGTT [4] | reduction in body weight vs oral sCT at same dose ([5]; 2 mg/kg p.o. b.i.d. for 3 days) | energy balance vs equivalent doses of oral sCT [5] | reduction in body weight vs oral sCT at same dose ([5]; 1 mg/kg p.o. b.i.d. for 3 days) |
| --- | --- | --- | --- | --- | --- | --- | --- | --- |
| CN(C)C(=N)N=C(N)N [metformin, reference compound] | individually improve | individually improve | reduced | reduced |  |  |  |  |
| PrCSNLSTCVLGKLSQELHKLQTYPRTNTGSGTP-NH2 (Propionyl-CSNLSTCVLGKLSQELHKLQTYPRTNTGSGTP-NH2; ends and bridges not checked) [UGP284, calcitonin mimetic] |  |  |  |  | improvement in glucose tolerance | significantly difference at 2 mg/kg dose | superiority to equivalent doses of oral sCT |  |
| SuccCSNLSTCVLGKLSQELHKLQTYPRTNTGSGTP-NH2 (Suc-CSNLSTCVLGKLSQELHKLQTYPRTNTGSGTP-NH2; ends and bridges not checked) [UGP298, calcitonin mimetic] |  |  |  |  | improvement in glucose tolerance | significantly different when compared with oral sCT | superiority to equivalent doses of oral sCT | significantly different when compared with oral sCT |

From patent publication US9862754B2, “Peptide analogs for treating diseases and disorders” (KeyBioscience AG, priority 2011, dated 2018)
